IC50 data for 25 molecules are collected here from patent US9814704B2, “Substituted pyrrolo[2,3-b]pyridines as MLK inhibitors” (The University of Rochester, priority 2008, dated 2017).

Where a name gives a salt, the structure may show the parent alone.

In one experiment the target is MLK3 (Homo sapiens (Human), UniProt Q16584). As to the kind of experiment: Radiometric Filter Plate MLK3 Assay. It counts as biochemical. Conditions: 200 ng (130 nM) MLK3, 1 μM inactive MKK7b, 2 μM cold ATP (Km), 33P ATP, twenty minute incubation; read-out: MK3 IC50. The protocol: Radiometric Filter Plate MLK3 Assay
Chain of MLK3 (Q16584 whole entry): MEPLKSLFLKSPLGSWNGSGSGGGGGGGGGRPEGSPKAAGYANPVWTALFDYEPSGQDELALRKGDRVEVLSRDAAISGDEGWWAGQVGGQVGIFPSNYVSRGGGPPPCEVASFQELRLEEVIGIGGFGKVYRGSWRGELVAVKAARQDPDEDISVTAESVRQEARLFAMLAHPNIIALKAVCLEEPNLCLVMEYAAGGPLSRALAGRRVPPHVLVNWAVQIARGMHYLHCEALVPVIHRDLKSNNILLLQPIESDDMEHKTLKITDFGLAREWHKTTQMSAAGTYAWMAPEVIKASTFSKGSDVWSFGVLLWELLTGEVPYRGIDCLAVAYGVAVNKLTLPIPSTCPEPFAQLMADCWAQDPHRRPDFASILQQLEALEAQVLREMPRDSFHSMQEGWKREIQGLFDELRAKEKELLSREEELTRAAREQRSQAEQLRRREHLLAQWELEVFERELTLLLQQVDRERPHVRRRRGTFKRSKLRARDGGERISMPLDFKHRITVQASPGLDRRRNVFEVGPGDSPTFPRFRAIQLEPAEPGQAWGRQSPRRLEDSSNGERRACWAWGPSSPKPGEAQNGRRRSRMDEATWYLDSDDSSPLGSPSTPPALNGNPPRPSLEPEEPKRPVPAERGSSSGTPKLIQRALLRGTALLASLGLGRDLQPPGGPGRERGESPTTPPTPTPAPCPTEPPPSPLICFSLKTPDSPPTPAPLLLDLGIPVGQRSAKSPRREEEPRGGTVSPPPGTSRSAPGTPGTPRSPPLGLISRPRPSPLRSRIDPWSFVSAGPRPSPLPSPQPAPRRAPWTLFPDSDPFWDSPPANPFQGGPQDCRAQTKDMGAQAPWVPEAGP
After a twenty minute incubation, the reactions were washed through filter plates and read on a scintillation counter. Results are shown in Table 4 below, in which +++ indicates ≦0.1 μM, ++ indicates >0.1 μM and ≦1 μM, and + indicates >1 μM.
One may read the IC50 as the point on the concentration scale where inhibition reaches its midpoint. Turning to `COc1cc(-c2cnc3[nH]c(=O)n(CC4CC4)c3c2)cc(OC)c1OC` [Example 125, 1-(cyclopropylmethyl)-6-(3,4,5-trimethoxyphenyl)-1H-imidazo[4,5-b]pyridin-2(3H)-one], the IC50 was above 1000 nM.

Take `COc1cc(-c2cnc3ncn(-c4ccc5[nH]ccc5c4)c3n2)cc(OC)c1OC` [Example 126, 1-(1H-indol-5-yl)-6-(3,4,5-trimethoxyphenyl)-1H-imidazo[4,5-b]pyrazine]: the IC50 is above 1000 nM.

`COc1cc(-c2cnc3[nH]c(=S)n(CC4CC4)c3n2)cc(OC)c1OC` [Example 127, 1-(cyclopropylmethyl)-6-(3,4,5-trimethoxyphenyl)-1H-imidazo[4,5-b]pyrazine-2(3H)-thione]: the 50% inhibitory concentration (IC50) is above 1000 nM. The same measure, in the same setting: in the case of `COc1cc(-c2cnc3c(c2)/C(=C\c2ccncc2)C(=O)N3)cc(OC)c1OC` [Example 129, (E)- and (Z)-3-pyridin-4-ylmethylene-5-(3,4,5-trimethoxy-phenyl)-1,3-dihydro-pyrrolo[2,3-b]pyridin-2-one] it was above 1000 nM; in that of `COc1cc(-c2cnc3c(c2)C(=Cc2ccccc2)C(=O)N3)cc(OC)c1OC` [Example 130, 3-benzylidene-5-(3,4,5-trimethoxy-phenyl)-1,3-dihydro-pyrrolo[2,3-b]pyridin-2-one], above 1000 nM; in that of `COc1cc(-c2cnc3c(c2)C(=Cc2cccc(C(N)=O)c2)C(=O)N3)cc(OC)c1OC` [Example 132, 3-[2-oxo-5-(3,4,5-trimethoxy-phenyl)-1,2-dihydro-pyrrolo[2,3-b]pyridin-3-ylidenemethyl]-benzamide], above 1000 nM. As for `COc1cc(-c2cnc3c(c2)C(=Cc2ccc(C#N)cc2)C(=O)N3)cc(OC)c1OC` [Example 133, 4-[2-oxo-5-(3,4,5-trimethoxy-phenyl)-1,2-dihydro-pyrrolo[2,3-b]pyridin-3-ylidenemethyl]-benzonitrile], the 50% inhibitory concentration (IC50) was above 1000 nM. The same measure, in the same setting: the figure for `COc1cc(-c2cnc3c(c2)C(=Cc2cccc(C#N)c2)C(=O)N3)cc(OC)c1OC` [Example 134, 3-[2-oxo-5-(3,4,5-trimethoxy-phenyl)-1,2-dihydro-pyrrolo[2,3-b]pyridin-3-ylidenemethyl]-benzonitrile] is above 1000 nM. On the same count and under the same terms, in the case of `COc1cc(-c2cnc3c(c2)C(Cc2cccnc2)C(=O)N3)cc(OC)c1OC` (stereo not shown) [Example 135, 3-pyridin-3-ylmethyl-5-(3,4,5-trimethoxy-phenyl)-1,3-dihydro-pyrrolo[2,3-b]pyridin-2-one] it was above 1000 nM; in that of `COc1cc(-c2cnc3c(c2)C(Cc2ccccc2)C(=O)N3)cc(OC)c1OC` (stereo not shown) [Example 137, 3-benzyl-5-(3,4,5-trimethoxy-phenyl)-1,3-dihydro-pyrrolo[2,3-b]pyridin-2-one], above 1000 nM; in that of `COc1cc(-c2cnc3c(c2)C(Cc2ccc(C(N)=O)cc2)C(=O)N3)cc(OC)c1OC` (stereo not shown) [Example 138, 4-[2-oxo-5-(3,4,5-trimethoxy-phenyl)-2,3-dihydro-1H-pyrrolo[2,3-b]pyridin-3-ylmethyl]-benzamide], above 1000 nM.

For the molecule `CN1CCN(Cc2ccc(-c3cnc4[nH]cc(-c5ccc6[nH]ccc6c5)c4c3)cc2)CC1=O` [Example 141, 4-{4-[3-(1H-indol-5-yl)-1H-pyrrolo[2,3-b]pyridin-5-yl]-benzyl}-1-methyl-piperazin-2-one], the IC50 is below 100 nM. Regarding `O=C1CN(Cc2ccc(-c3cnc4[nH]cc(-c5ccc6[nH]ccc6c5)c4c3)cc2)CCN1` [Example 142, 4-{4-[3-(1H-indol-5-yl)-1H-pyrrolo[2,3-b]pyridin-5-yl]-benzyl}-piperazin-2-one], the IC50 was below 100 nM. Same read-out and setting: the figure for `CN1CCN(Cc2cccc(-c3cnc4[nH]cc(-c5ccc6[nH]ccc6c5)c4c3)c2)CC1=O` [Example 143, 4-{3-[3-(1H-indol-5-yl)-1H-pyrrolo[2,3-b]pyridin-5-yl]-benzyl}-1-methyl-piperazin-2-one] is below 100 nM.

With `CC(C)(C)OC(=O)N1CCN(Cc2ccc(-c3cnc4[nH]cc(-c5ccc6[nH]ccc6c5)c4c3)cc2)CC1` [Example 144, 4-{4-[3-(1H-indol-5-yl)-1H-pyrrolo[2,3-b]pyridin-5-yl]-benzyl}-piperazine-1-carboxylic acid tert-butyl ester], the concentration for half-maximal inhibition (IC50) is below 100 nM. On the same count and under the same terms, in the case of `CC(=O)N1CCN(C(=O)c2ccc(-c3cnc4[nH]cc(-c5ccc6[nH]ccc6c5)c4c3)cc2)CC1` [Example 146, 1-(4-{4-[3-(1H-indol-5-yl)-1H-pyrrolo[2,3-b]pyridin-5-yl]-benzoyl}-piperazin-1-yl)-ethanone] it was below 100 nM; in that of `CN1CCN(C(=O)c2cccc(-c3cnc4[nH]cc(-c5ccc6[nH]ccc6c5)c4c3)c2)CC1` [Example 147, {3-[3-(1H-indol-5-yl)-1H-pyrrolo[2,3-b]pyridin-5-yl]-phenyl}-(4-methyl-piperazin-1-yl)-methanone], below 100 nM; in that of `CC(C)(C)OC(=O)N1CCN(C(=O)c2ccc(-c3cnc4[nH]cc(-c5ccc(C(N)=O)cc5)c4c3)cc2)CC1` [Example 148, 4-{4-[3-(4-carbamoyl-phenyl)-1H-pyrrolo[2,3-b]pyridin-5-yl]-benzoyl}-piperazine-1-carboxylic acid tert-butyl ester], below 100 nM. In the case of `NC(=O)c1ccc(-c2c[nH]c3ncc(-c4ccc(C(=O)N5CCNCC5)cc4)cc23)cc1` [Example 149, 4-{5-[4-(piperazine-1-carbonyl)-phenyl]-1H-pyrrolo[2,3-b]pyridin-3-yl}-benzamide, hydrochloride salt], the concentration for half-maximal inhibition (IC50) is below 100 nM. On the same count and under the same terms, in the case of `CC(C)(C)OC(=O)N1CCN(C(=O)c2cccc(-c3cnc4[nH]cc(-c5ccc(C(N)=O)cc5)c4c3)c2)CC1` [Example 151, 4-{3-[3-(4-carbamoyl-phenyl)-1H-pyrrolo[2,3-b]pyridin-5-yl]-benzoyl}-piperazine-1-carboxylic acid tert-butyl ester] it was below 100 nM.

The same experiment, now with this note: read-out: MK3 IC50.
As for `COc1cc(-c2cnc3c(c2)C(Cc2ccccc2)(Cc2ccccc2)C(=O)N3)cc(OC)c1OC` [Example 139, 3,3-dibenzyl-5-(3,4,5-trimethoxy-phenyl)-1,3-dihydro-pyrrolo[2,3-b]pyridin-2-one], the IC50 is 100 to 1000 nM. The same measure, in the same setting: the figure for `CC(=O)N1CCN(Cc2ccc(-c3cnc4[nH]cc(-c5ccc6[nH]ccc6c5)c4c3)cc2)CC1` [Example 140, 1-(4-{4-[3-(1H-indol-5-yl)-1H-pyrrolo[2,3-b]pyridin-5-yl]-benzyl}-piperazin-1-yl)-ethanone] is above 1000 nM; for `CC(=O)N1CCN(C(=O)c2ccc(-c3cnc4[nH]cc(-c5ccc(C(N)=O)cc5)c4c3)cc2)CC1` [Example 150, 4-{5-[4-(4-acetyl-piperazine-1-carbonyl)-phenyl]-1H-pyrrolo[2,3-b]pyridin-3-yl}-benzamide] it is 100 to 1000 nM; for `NC(=O)c1ccc(-c2c[nH]c3ncc(-c4cccc(C(=O)N5CCNCC5)c4)cc23)cc1` [Example 152, 4-{5-[3-(piperazine-1-carbonyl)-phenyl]-1H-pyrrolo[2,3-b]pyridin-3-yl}-benzamide, hydrochloride salt] it is 100 to 1000 nM. The same measure, in the same setting: the figure for `CC(=O)N1CCN(C(=O)c2cccc(-c3cnc4[nH]cc(-c5ccc(C(N)=O)cc5)c4c3)c2)CC1` [Example 153, 4-{5-[3-(4-acetyl-piperazine-1-carbonyl)-phenyl]-1H-pyrrolo[2,3-b]pyridin-3-yl}-benzamide] is 100 to 1000 nM.
